# Assay results from patent publication US4526989A, “1,4-Bis (substituted-amino)-5,8-dihydroxy-anthraquinones and leuco bases thereof” (priority 1979, dated 1985).
# Like-named read-outs stand apart in the source and are kept apart here.
# Assays:
# [1] = Storage behaviour of solid; assay type: physicochemical
# [2] = tested on: lymphocytic leukemia P388; assay: Lymphocytic leukemia P388 test (intraperitoneal administration); assay type: in vivo, DBA/2 mice; conditions: days 1, 5 and 9
# In short: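 DBA/2 mice, single sex, 5-6 per group, inoculated i.p. with 10^6 P388 leukemia cells. Compounds given i.p. at various doses on days 1, 5 and 9; survival followed 30 days, reporting median survival time and treated/control (T/C) survival ratio.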
# [3] = tested on: lymphocytic leukemia P388; assay: Lymphocytic leukemia P388 test (oral drug administration); assay type: in vivo, DBA/2 mice; conditions: for T/C × 100: efficacy ≥125%
# Experimental: The animals used are DBA/2 mice all of one sex, weighing a minimum of 17 g. and all within a 3 gram weight range. There are 5 or 6 animals per test group. The tumor transplant is by intraperitoneal injection of 0.1 ml. of dilute ascitic fluid containing 10^6 cells of lymphocytic leukemia P388. The test compounds are administered intraperitoneally on days one, 5 and 9 (relative to tumor inoculation) at various doses. The animals are weighed and survivors are recorded on a regular basis for 30 days. The median survival time and the ratio of survival time for treated (T)/control (C) animals are calculated. […] The results of this test with representative compounds of the present invention appear in Table I. The criterion for efficacy is T/C×100≥125%.
# The procedure used is the same as for the previously described test for lymphocytic leukemia P388 except that the test compounds are administered orally at various doses rather than intraperitoneally. The criterion for efficacy is T/C×100≥125%.
# melanotic melanoma B16 = assay: Melanotic Melanoma B16 test; assay type: in vivo, C57BC/6 mice; conditions: for response vs control in vivo at 3 mg/kg / response vs control in vivo at 6 mg/kg / response vs control in vivo at 12 mg/kg / response vs control in vivo at 25 mg/kg: Mus musculus, ip, read-out: T/C × 100
# In short: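 C57BC/6 mice (10 per group) were implanted i.p. with B16 melanoma homogenate, then dosed i.p. on days 1–9 at various doses.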
# [4] = tested on: Ridgway Osteogenic Sarcoma; assay: Ridgway Osteogenic Sarcoma; assay type: in vivo, AKD2 F1 /J mice; conditions: for % Inhibition Tumor Growth / % Showing 50% Tumor Regression / No. Without Tumors/No. Survivors / Tumor: 7 days after therapy stopped; for Median Survival / T/C: 63 days after therapy stopped
# Experimental: The animals used are AKD2 F1 /J mice, all of the same sex, weighing a minimim of 17 g. and all within a three-gram weight range. There are normally 8 animals per test group. The tumor is administered subcutaneously by trocar as five 2-mm. fragments per mouse. The test compounds are administered intraperitoneally every 4 days for a total of 6 inoculations beginning on day 15 (relative to tumor inoculation) at various doses. The animals are weighed and survivors are recorded on a regular basis for 90 days. The regression of tumors is recorded in all test animals.
# [5] = Mus musculus, P388, ip, 3 mg./kg. i.p., efficacy ≥125%, read-out: T/C × 100
# [6] = Mus musculus, P388, ip, 6 mg./kg. i.p., efficacy ≥125%, read-out: T/C × 100
# [7] = Mus musculus, P388, ip, 12 mg./kg. i.p., efficacy ≥125%, read-out: T/C × 100
# [8] = Mus musculus, P388, ip, 25 mg./kg. i.p., efficacy ≥125%, read-out: T/C × 100
# [9] = Mus musculus, P388, ip, 50 mg./kg. i.p., efficacy ≥125%, read-out: T/C × 100
# [10] = 3 mg./kg. i.p., days 1 through 9
# [11] = 6 mg./kg. i.p., days 1 through 9
# [12] = 12 mg./kg. i.p., days 1 through 9
# [13] = 25 mg./kg. i.p., days 1 through 9
# [14] = 6 mg./kg. i.p., days 1 through 9, efficacy ≥125%
# [15] = 12 mg./kg. i.p., days 1 through 9, efficacy ≥125%
# [16] = 25 mg./kg. i.p., days 1 through 9, efficacy ≥125%
compound,measurement,setting,value
"O=C1C2=C(NCCNCCNCCO)CCC(NCCNCCNCCO)=C2C(=O)c2c(O)ccc(O)c21 [Example 33, Leuco-1,4-bis[2-[2-(2-hydroxyethylamino)ethylamino]ethylamino]-5,8-dihydroxyanthraquinone]",storage behaviour of solid,[1]; stored at 25° C.,coalesces into a solid cake
same,storage behaviour of solid,[1]; stored at -25° C.,remains granular
"CN(C)CCNc1ccc(NCCN(C)C)c2c1C(=O)c1c(O)ccc(O)c1C2=O [1,4-Bis[(2-dimethylaminoethyl)amino]-5,8-dihydroxyanthraquinone]",Median Survival Time,[2]; 3 mg./kg. i.p.,19.5 days
same,Median Survival Time,[2]; 6 mg./kg. i.p.,21.0 days
same,Median Survival Time,[2]; 12 mg./kg. i.p.,23.0 days
same,Median Survival Time,[2]; 25 mg./kg. i.p.,20.5 days
same,Median Survival Time,[2]; 50 mg./kg. i.p.,25.0 days
same,response vs control in vivo at 3 mg/kg,[2]; [5],217%
same,response vs control in vivo at 6 mg/kg,[2]; [6],233%
same,response vs control in vivo at 12 mg/kg,[2]; [7],256%
same,response vs control in vivo at 25 mg/kg,[2]; [8],228%
same,response vs control in vivo at 50 mg/kg,[2]; [9],278%
same,Median Survival Time,[3]; 3 mg./kg. oral,15.0 days
same,T/C × 100,[3]; 3 mg./kg. oral,130%
same,Median Survival Time,[3]; 6 mg./kg. oral,16.0 days
same,T/C × 100,[3]; 6 mg./kg. oral,139%
same,Median Survival Time,[3]; 12 mg./kg. oral,16.0 days
same,T/C × 100,[3]; 12 mg./kg. oral,139%
same,Median Survival Time,melanotic melanoma B16; [10],25.5 days
same,Median Survival Time,melanotic melanoma B16; [11],27.0 days
same,Median Survival Time,melanotic melanoma B16; [12],28.5 days
same,Median Survival Time,melanotic melanoma B16; [13],24.5 days
same,response vs control in vivo at 3 mg/kg,melanotic melanoma B16,142%
same,response vs control in vivo at 6 mg/kg,melanotic melanoma B16; [14],150%
same,response vs control in vivo at 12 mg/kg,melanotic melanoma B16; [15],158%
same,response vs control in vivo at 25 mg/kg,melanotic melanoma B16; [16],136%
same,% Inhibition Tumor Growth,[4]; 6 mg./kg. i.p.,19%
same,% Showing 50% Tumor Regression,[4]; 6 mg./kg. i.p.,0%
same,No. Without Tumors/No. Survivors,[4]; 6 mg./kg. i.p.,0/6
same,Tumor,[4]; 6 mg./kg. i.p.,960 (mm.) 2
same,Median Survival,[4]; 6 mg./kg. i.p.,57.5 days
same,T/C,[4]; 6 mg./kg. i.p.,129%
same,% Inhibition Tumor Growth,[4]; 12 mg./kg. i.p.,61%
same,% Showing 50% Tumor Regression,[4]; 12 mg./kg. i.p.,0%
same,No. Without Tumors/No. Survivors,[4]; 12 mg./kg. i.p.,0/3
same,Tumor,[4]; 12 mg./kg. i.p.,470 (mm.) 2
same,Median Survival,[4]; 12 mg./kg. i.p.,37 days
same,T/C,[4]; 12 mg./kg. i.p.,83%
same,% Inhibition Tumor Growth,[4]; 25 mg./kg. i.p.,41%
same,% Showing 50% Tumor Regression,[4]; 25 mg./kg. i.p.,0%
same,No. Without Tumors/No. Survivors,[4]; 25 mg./kg. i.p.,0/8
same,Tumor,[4]; 25 mg./kg. i.p.,653 (mm.) 2
same,Median Survival,[4]; 25 mg./kg. i.p.,78 days
same,T/C,[4]; 25 mg./kg. i.p.,175%
same,% Inhibition Tumor Growth,[4]; 50 mg./kg. i.p.,78%
same,% Showing 50% Tumor Regression,[4]; 50 mg./kg. i.p.,25%
same,No. Without Tumors/No. Survivors,[4]; 50 mg./kg. i.p.,2/6
same,Tumor,[4]; 50 mg./kg. i.p.,263 (mm.) 2
same,Median Survival,[4]; 50 mg./kg. i.p.,92.5 days
same,T/C,[4]; 50 mg./kg. i.p.,208%
same,% Inhibition Tumor Growth,[4]; 100 mg./kg. i.p.,96%
same,% Showing 50% Tumor Regression,[4]; 100 mg./kg. i.p.,28%
same,No. Without Tumors/No. Survivors,[4]; 100 mg./kg. i.p.,2/5
same,Tumor,[4]; 100 mg./kg. i.p.,52 (mm.) 2
same,Median Survival,[4]; 100 mg./kg. i.p.,48 days
same,T/C,[4]; 100 mg./kg. i.p.,108%
"CN(C)CCNC1=C2C(=O)c3c(O)ccc(O)c3C(=O)C2=C(NCCN(C)C)CC1 [Leuco-1,4-bis[(2-dimethylaminoethyl)amino]-5,8-dihydroxy-anthraquinone]",Median Survival Time,[2]; 1.5 mg./kg. i.p.,13.0 days
same,Median Survival Time,[2]; 3 mg./kg. i.p.,14.5 days
same,Median Survival Time,[2]; 6 mg./kg. i.p.,16.0 days
same,Median Survival Time,[2]; 12 mg./kg. i.p.,17.5 days
same,Median Survival Time,[2]; 25 mg./kg. i.p.,19.0 days
same,Median Survival Time,[2]; 50 mg./kg. i.p.,24.5 days
same,Median Survival Time,[2]; 100 mg./kg. i.p.,24.5 days
same,response vs control in vivo at 1.5 mg/kg,"[2]; Mus musculus, P388, ip, 1.5 mg./kg. i.p., efficacy ≥125%, read-out: T/C × 100",130%
same,response vs control in vivo at 3 mg/kg,[2]; [5],145%
same,response vs control in vivo at 6 mg/kg,[2]; [6],160%
same,response vs control in vivo at 12 mg/kg,[2]; [7],175%
same,response vs control in vivo at 25 mg/kg,[2]; [8],190%
same,response vs control in vivo at 50 mg/kg,[2]; [9],245%
same,response vs control in vivo at 100 mg/kg,"[2]; Mus musculus, P388, ip, 100 mg./kg. i.p., efficacy ≥125%, read-out: T/C × 100",245%
same,Median Survival Time,[3]; 12 mg./kg. oral,12.5 days
same,T/C × 100,[3]; 12 mg./kg. oral,125%
same,Median Survival Time,[3]; 25 mg./kg. oral,13.5 days
same,T/C × 100,[3]; 25 mg./kg. oral,135%
same,Median Survival Time,[3]; 50 mg./kg. oral,16.0 days
same,T/C × 100,[3]; 50 mg./kg. oral,160%
same,Median Survival Time,melanotic melanoma B16; [10],21.0 days
same,Median Survival Time,melanotic melanoma B16; [11],21.5 days
same,Median Survival Time,melanotic melanoma B16; [12],23.0 days
same,Median Survival Time,melanotic melanoma B16; [13],25.0 days
same,response vs control in vivo at 3 mg/kg,"melanotic melanoma B16; 3 mg./kg. i.p., days 1 through 9, efficacy ≥125%",127%
same,response vs control in vivo at 6 mg/kg,melanotic melanoma B16; [14],130%
same,response vs control in vivo at 12 mg/kg,melanotic melanoma B16; [15],139%
same,response vs control in vivo at 25 mg/kg,melanotic melanoma B16; [16],151%
